According to patent publication US8986696B2, “Trans-capsular administration of p38 map kinase inhibitors into orthopedic joints” (DePuy Mitek, Inc., priority 2007, dated 2015):

Key:
[1] = test system: IL-1β-stimulated GAG release, bovine chondrocyte pellets / ARC tissues; assay: chondrocyte pellet culture model: GAG degradation; type: cell-based
From the text: (§1) Calf articular cartilage was obtained from the knee joints of eight to twelve month old animals and was processed within twenty-four hours after sacrifice. After removal of muscle and ligament, the cartilage was kept moist using phosphate buffer solution (PBS) to prevent tissue dehydration, and was aseptically peeled off from subchondral bone with a scalpel, and the cartilage pieces were further minced into smaller pieces (˜0.3-0.5×˜0.2-0.5 cm cubes). […] Chondrocytes were then enzymatically isolated from the tissue by incubation for overnight at 37° C. with gentle agitation in 0.2% collagenase in Dulbecco's modified eagle media (DMEM). After removal of tissue debris by filtration through cell strainer and the residual collagenase by 3× wash in PBS, cells were finally resuspended at a density of 2.5×10^6 cells/ml in chondrocyte medium. A 1 ml aliquot of the cell suspension was dispensed into either a 15 ml Falcon centrifuge tube or a 96 deep-well plate and centrifuged at 2000×g for five minutes. The chondrocyte pellets were incubated at 37° C. in a humidified atmosphere of 5% CO2 for two to three weeks with a medium change every other day.
(§2) As an alternative to using calf articular cartilage, a commercial Alginate Recovered Chondrocytes (ARC) system was also used (Articular Engineering, LLC (Northbrook, Ill.)). Use of the commercial system cut down on labor and time in producing chondrocyte pellet. This system produced cartilaginous tissue in vitro using bovine chondrocytes. The first step consisted of culturing chondrocytes in alginate under conditions optimal for the formation of a cell-associated matrix (CM). The second step allowed these cells with their CM, after recovery, to rapidly form and become integrated into a solid mass of cartilage on a porous insert within two weeks. This tissue is rich in cells surrounded by a cell-associated matrix that is degraded rapidly when the cells are exposed to IL-1. ARC tissues in 3 mm punches at delivery were first dispensed into a 96 deep-well plate, one punch per well, for compound treatment. The subsequent procedures were the same as those used for the chondrocyte pellets.
(§3) Chondrocyte pellets were washed once with 1 ml of Chondrocyte Stimulation Medium and equilibrated in the same medium at room temperature for fifteen to thirty minutes. Compounds were dissolved in H2O, Ethanol or dimethyl sulfoxide (DMSO) (10^−2 M) according to suppliers' instructions and further diluted with Chondrocyte Stimulation Medium to the required concentrations. DMSO concentrations in the culture media should not exceed 1%; this concentration of DMSO has no effect on cartilage proteoglycan metabolism in response to cytokines.
[…] At the end of the incubation, media and pellets were harvested and frozen for further analysis. Pellets were also fixed as needed in 4% (w/v) paraformaldehyde in PBS for histology analysis.
Glycosaminoglycan (GAG) levels in the culture media were determined by measuring the amount of polyanionic material reacting with 1,9-dimethylmethylene blue (DME) as detected by absorbance at 525 nm, using shark chondroitin sulfate as a standard. The DME blue dye-binding solution was prepared by dissolving 16 mg of DME blue in a solution containing 0.304% glycine, 0.23% sodium chloride (NaCl), 9.5 mM hydrochloric acid (HCl), pH=3.0 with absorbance at 525 equal to 0.31. Proteoglycans and proteoglycan metabolites in chondrocyte pellet were released by digesting the pellet with 125 μg/ml of papain in 0.1 M PBS, pH 6.0, 5 mM cysteine, 5 mM ethylene-diamine-tetra-acetic acid disodium salt (Na2EDTA) at 50° C. for overnight. Results are reported as either micrograms of GAG per milliliter or percent of total GAG released into culture medium.

[2] = test system: chondrocytes; type: cell-based; conditions: bovine, 100000 nM
From the text: as §1, §2, §3
The pellets were first treated with compounds at desired concentrations at 37° C. for one hour and then incubated for three to five days in the absence or presence of 10 ng/ml of IL-1β. At the end of the incubation, media and pellets were harvested and frozen for further analysis. Pellets were also fixed as needed in 4% (w/v) paraformaldehyde in PBS for histology analysis.
The LDH activity was determined colorimetrically in an enzymatic test based on the conversion of lactic acid to pyruvate in the presence of chromagenic substrate tetrazolium salt INT that was reduced to formazan.

[3] = test system: rabbit anterior cruciate ligament transection (ACLT) model of osteoarthritis; assay: ACLT model, SCIO-469 (Example VIII); type: in vivo
Description: The formulation of the highest concentration was diluted into the lower concentrations using ORTHOVISC®. Once prepared, the formulations were stored at 4° C. The study design consisted of an n=12 per group. The SCIO-469 (SD 469) was suspended in ORTHOVISC®. A total of 160 μl was injected at each administration. The intra-articular injections were performed according to the ACLT model. However, control groups either received no injections or received the ORTHOVISC® vehicle delivered once weekly for three weeks. Euthanasia was performed according to the ACLT model. However, the animals were euthanized nine weeks post ACLT with an intravenous injection of pentobarbital (60 mg/kg). […] At the time of sacrifice the following parameters were evaluated grossly (the scale follows in parenthesis): Each parameter was given a score. The combination of all parameters gave a Total Score (0-52). […] Lastly, an All Cartilage Effects Score was obtained. The score for All Cartilage Effects ranges from 0 to 40. The grades that compose this parameter are trochlear groove thickness and erosion, all the grades in All Condylar Effects, and all grades listed under tibial plateau. A higher score indicates more damage to the joint. A lower score indicates less damage or more cartilage preservation to the joint. Individual results for each parameter assessed were tabulated (data not shown).

[4] = drug content in the joints (Example VIII); type: in vivo, rabbit; conditions: at the time of analysis
From the text: For each treatment group, four animals were included to provide pharmacokinetic data (available drug levels in blood and tissue). Prior to treatment administration, blood samples were collected and frozen for analysis. After gross observation, the joints were removed and frozen for analysis.

For `C[C@@H]1CN(Cc2ccc(F)cc2)[C@@H](C)CN1C(=O)c1cc2c(C(=O)C(=O)N(C)C)cn(C)c2cc1Cl` [SCIO-469 (SD 469)], the “inhibition of GAG degradation” value ([1]; ARC tissues stimulated with IL-1β) was “no effect”, the “GAG Release” value ([1]; Pellet Assay) was “No effect” and the “increase of LDH level” value [2] was 121%. The “All Cartilage Effects (0-40), mean” value ([3]; 0.5 μg/kg) was 12.75, the “All Condylar Effects (0-18), mean” value ([3]; 0.5 μg/kg) was 6.45 and the “All Tibial Plateau Effects (0-24), mean” value ([3]; 0.5 μg/kg) was 7.20. For the same compound, the “All Trochlear Groove Effects (0-10), mean” value (shortened to “All Trochlear Groove Effects”) ([3]; 0.5 μg/kg) was 8.40, the “Femoral Condyle % Surface Area Erosion (Lateral), mean score” value ([3]; 0.5 μg/kg) was 2.80 and the “Femoral Condyle % Surface Area Erosion (Medial), mean score” value ([3]; 0.5 μg/kg) was 0.90. The “Femoral Condyle Depth of Erosion (Lateral), mean score” value ([3]; 0.5 μg/kg) was 2.00, the “Femoral Condyle Depth of Erosion (Medial), mean score” value ([3]; 0.5 μg/kg) was 0.55 and the “Femoral Condyle Presence of Clefts, mean score” value (“Femoral Condyle Presence” below) ([3]; 0.5 μg/kg) was 0.20. For the same compound, the “Tibial Plateau # of Osteophytes (Lateral), mean score” value ([3]; 0.5 μg/kg) was 1.50, the “Tibial Plateau # of Osteophytes (Medial), mean score” value ([3]; 0.5 μg/kg) was 1.80 and the “Tibial Plateau % Surface Area Erosion (Lateral), mean score” value ([3]; 0.5 μg/kg) was 2.00. For the same compound, the “Tibial Plateau % Surface Area Erosion (Medial), mean score” value ([3]; 0.5 μg/kg) was 0, the “Tibial Plateau Depth of Erosion (Lateral), mean score” value ([3]; 0.5 μg/kg) was 1.90 and the “Tibial Plateau Depth of Erosion (Medial), mean score” value ([3]; 0.5 μg/kg) was 0. For the same compound, the “Tibial Plateau Presence of Clefts (Lateral), mean score” value ([3]; 0.5 μg/kg) was 0, the “Tibial Plateau Presence of Clefts (Medial), mean score” value ([3]; 0.5 μg/kg) was 0 and the “Total Score (0-52), mean” value ([3]; 0.5 μg/kg) was 22.05. The “Trochlear Groove # of Osteophytes, mean score” value (“Trochlear Groove #” below) ([3]; 0.5 μg/kg) was 3.00, the “Trochlear Groove Erosion of Cartilage, mean score” value (“Trochlear Groove Erosion” below) ([3]; 0.5 μg/kg) was 2.40 and the “Trochlear Groove Osteophyte Size, mean score” value ([3]; 0.5 μg/kg) was 3.00. For the same compound, the “Trochlear Groove Thickening, mean score” value ([3]; 0.5 μg/kg) was 0, the “All Cartilage Effects (0-40), mean” value ([3]; 5 μg/kg) was 13.17 and the “All Condylar Effects (0-18), mean” value ([3]; 5 μg/kg) was 6.50. The “All Tibial Plateau Effects (0-24), mean” value ([3]; 5 μg/kg) was 7.08, the “All Trochlear Groove Effects” value ([3]; 5 μg/kg) was 8.08 and the “Femoral Condyle % Surface Area Erosion (Lateral), mean score” value ([3]; 5 μg/kg) was 1.67. The “Femoral Condyle % Surface Area Erosion (Medial), mean score” value ([3]; 5 μg/kg) was 1.67, the “Femoral Condyle Depth of Erosion (Lateral), mean score” value ([3]; 5 μg/kg) was 1.96 and the “Femoral Condyle Depth of Erosion (Medial), mean score” value ([3]; 5 μg/kg) was 1.21. For the same compound, the “Femoral Condyle Presence” value ([3]; 5 μg/kg) was 0, the “Tibial Plateau # of Osteophytes (Lateral), mean score” value ([3]; 5 μg/kg) was 1.08 and the “Tibial Plateau # of Osteophytes (Medial), mean score” value ([3]; 5 μg/kg) was 1.67. For the same compound, the “Tibial Plateau % Surface Area Erosion (Lateral), mean score” value ([3]; 5 μg/kg) was 1.50, the “Tibial Plateau % Surface Area Erosion (Medial), mean score” value ([3]; 5 μg/kg) was 0.58 and the “Tibial Plateau Depth of Erosion (Lateral), mean score” value ([3]; 5 μg/kg) was 1.63. The “Tibial Plateau Depth of Erosion (Medial), mean score” value ([3]; 5 μg/kg) was 0.63, the “Tibial Plateau Presence of Clefts (Lateral), mean score” value ([3]; 5 μg/kg) was 0 and the “Tibial Plateau Presence of Clefts (Medial), mean score” value ([3]; 5 μg/kg) was 0. The “Total Score (0-52), mean” value ([3]; 5 μg/kg) was 21.67, the “Trochlear Groove #” value ([3]; 5 μg/kg) was 2.83 and the “Trochlear Groove Erosion” value ([3]; 5 μg/kg) was 2.17. The “Trochlear Groove Osteophyte Size, mean score” value ([3]; 5 μg/kg) was 2.92, the “Trochlear Groove Thickening, mean score” value ([3]; 5 μg/kg) was 0.17 and the “All Cartilage Effects (0-40), mean” value ([3]; 50 μg/kg) was 8.32. For the same compound, the “All Condylar Effects (0-18), mean” value ([3]; 50 μg/kg) was 4.18, the “All Tibial Plateau Effects (0-24), mean” value ([3]; 50 μg/kg) was 5.41 and the “All Trochlear Groove Effects” value ([3]; 50 μg/kg) was 6.91. For the same compound, the “Femoral Condyle % Surface Area Erosion (Lateral), mean score” value ([3]; 50 μg/kg) was 1.18, the “Femoral Condyle % Surface Area Erosion (Medial), mean score” value ([3]; 50 μg/kg) was 1.27 and the “Femoral Condyle Depth of Erosion (Lateral), mean score” value ([3]; 50 μg/kg) was 1.05. For the same compound, the “Femoral Condyle Depth of Erosion (Medial), mean score” value ([3]; 50 μg/kg) was 0.68, the “Femoral Condyle Presence” value ([3]; 50 μg/kg) was 0 and the “Tibial Plateau # of Osteophytes (Lateral), mean score” value ([3]; 50 μg/kg) was 0.91. For the same compound, the “Tibial Plateau # of Osteophytes (Medial), mean score” value ([3]; 50 μg/kg) was 1.73, the “Tibial Plateau % Surface Area Erosion (Lateral), mean score” value ([3]; 50 μg/kg) was 1.09 and the “Tibial Plateau % Surface Area Erosion (Medial), mean score” value ([3]; 50 μg/kg) was 0.36. For the same compound, the “Tibial Plateau Depth of Erosion (Lateral), mean score” value ([3]; 50 μg/kg) was 1.14, the “Tibial Plateau Depth of Erosion (Medial), mean score” value ([3]; 50 μg/kg) was 0.18 and the “Tibial Plateau Presence of Clefts (Lateral), mean score” value ([3]; 50 μg/kg) was 0. The “Tibial Plateau Presence of Clefts (Medial), mean score” value ([3]; 50 μg/kg) was 0, the “Total Score (0-52), mean” value ([3]; 50 μg/kg) was 16.50 and the “Trochlear Groove #” value ([3]; 50 μg/kg) was 2.64. The “Trochlear Groove Erosion” value ([3]; 50 μg/kg) was 1.36, the “Trochlear Groove Osteophyte Size, mean score” value ([3]; 50 μg/kg) was 2.91 and the “Trochlear Groove Thickening, mean score” value ([3]; 50 μg/kg) was 0. For the same compound, the “utility in ACLT model, gross observations” value ([3]; 0.5, 5 or 50 μg/kg, direct injection into a diseased joint) was “did not demonstrate the utility” and the “drug content in the joints” value [4] was “no drug could be detected”.
